“And” between values parts separate entries of the source, which are not always exact repeats. Identical values can stand only once. Inconclusive results and toxic doses are left out.

Results on 20 molecules are retold here after PubChem BioAssay AID328 (DTP/NCI, 2004).

For the test, the system named is BDF1 mice, P388 leukemia ip, median survival T/C. Put plainly: NCI In Vivo Anticancer Drug Screen. Data for tumor model P388 Leukemia (intraperitoneal) in B6D2F1 (BDF1) mice. To be noted: endpoint: median survival time, higher = longer survival. The method in brief:
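Antitumour effect was judged in vivo: survival in drug-treated mice, normalised to that of vehicle-dosed controls, gives the reported T/C.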

The mark [1] stands for this setting: dose: 100.0 mg/kg/injection, schedule: Q01DX001 (ip), vehicle: saline with Tween-80.
Setting [2] is: dose: 100.0 mg/kg/injection, schedule: Q04DX003 (ip), vehicle: saline with Tween-80.
The mark [3] stands for this setting: dose: 200.0 mg/kg/injection, schedule: Q04DX003 (ip), vehicle: saline with Tween-80.
[4] abbreviates: dose: 50.0 mg/kg/injection, schedule: Q04DX003 (ip), vehicle: saline with Tween-80.
The mark [5] stands for this setting: dose: 12.5 mg/kg/injection, schedule: Q01DX009 (ip), vehicle: saline with Tween-80.
Setting [6] is: dose: 100.0 mg/kg/injection, schedule: Q01DX009 (ip), vehicle: saline with Tween-80.
[7] abbreviates: dose: 100.0 mg/kg/injection, schedule: Q04DX003 (ip), vehicle: saline.

As to `COC(=O)/C(C)=C/C1N=C1c1ccccc1` (stereo not drawn), the T/C under setting [1] is 120 % of control.

For the molecule `C=CCN(CC=C)CCNc1nc(C(Cl)(Cl)Cl)nc2ccc(Cl)cc12`, the T/C is, setting by setting: under setting [2], 100 % of control; under setting [3], 112 % of control; (dose: 400.0 mg/kg/injection, schedule: Q04DX003 (ip), vehicle: saline with Tween-80) 116 % of control.

With `CCCOP(=O)(OCCC)C(OC(=O)C(C)C)=C(C)C`, the T/C runs as follows: under setting [2], 120 % of control; under setting [3], 105 % of control.

`CC1CCC2(CC1)NC(=O)N(CNc1ccccc1)C2=O` (stereo not drawn): the T/C is, setting by setting: under setting [4], 100 % of control; under setting [2], 87 % of control; under setting [3], 100 % of control.

For the molecule `COc1ccc(OC)c2nc3c(=O)[nH]c(=O)[nH]c3nc12`, the T/C is, setting by setting: (dose: 55.0 mg/kg/injection, schedule: Q01DX010 (ip), vehicle: water) 100 % of control; (dose: 80.0 mg/kg/injection, schedule: Q01DX010 (ip), vehicle: water) 109 % of control; (dose: 120.0 mg/kg/injection, schedule: Q01DX010 (ip), vehicle: water) 109 % of control; (dose: 180.0 mg/kg/injection, schedule: Q01DX010 (ip), vehicle: water) 118 % of control.

Turning to `CCCC(=O)c1cc(O)c(O)cc1O`, the T/C by setting is: under setting [5], 95 % of control; (dose: 25.0 mg/kg/injection, schedule: Q01DX009 (ip), vehicle: saline with Tween-80) 104 % of control; (dose: 50.0 mg/kg/injection, schedule: Q01DX009 (ip), vehicle: saline with Tween-80) 106 % of control.

`c1ccc(-c2nnc3oc(-c4cccs4)nn23)cc1`: the T/C by setting is: under setting [6], 86 % of control; (dose: 200.0 mg/kg/injection, schedule: Q01DX009 (ip), vehicle: saline with Tween-80) 90 % of control; (dose: 400.0 mg/kg/injection, schedule: Q01DX009 (ip), vehicle: saline with Tween-80) 90 % of control.

Consider `CC1=C(O)/C(=C\C(C)CCCC(C)/C=C/C=C(\C)CCCc2ccoc2)OC1=O` (stereo not drawn), for which the T/C is, setting by setting: (dose: 5.0 mg/kg/injection, schedule: Q01DX009 (ip), vehicle: other) 98 % of control; (dose: 10.0 mg/kg/injection, schedule: Q01DX009 (ip), vehicle: other) 96 % of control; (dose: 20.0 mg/kg/injection, schedule: Q01DX009 (ip), vehicle: other) 97 % of control.

As for `O=S(=O)(C1=CCCCC1)C1=CCCCC1`, the T/C is, setting by setting: (dose: 25.0 mg/kg/injection, schedule: Q04DX003 (ip), vehicle: saline with Tween-80) 104 % of control; under setting [4], 99 % of control; under setting [2], 88 % of control and 100 % of control.

Turning to `O=C1CCC(=O)N1CO`, the T/C was 109 % of control (dose: 25.0 mg/kg/injection, schedule: Q04DX003 (ip), vehicle: saline); 95 % of control (dose: 44.0 mg/kg/injection, schedule: Q04DX003 (ip), vehicle: saline); 104 % of control (dose: 50.0 mg/kg/injection, schedule: Q04DX003 (ip), vehicle: saline); 109 % of control (dose: 66.0 mg/kg/injection, schedule: Q04DX003 (ip), vehicle: saline); 118 % of control under setting [7]; 159 % of control (dose: 300.0 mg/kg/injection, schedule: Q04DX003 (ip), vehicle: saline).

For `CC(C)C1=CC2=CC(=O)C3C(C)(C)CCCC3(C)C2=C(O)C1=O` (stereo not drawn), the T/C reads like this: (dose: 2.0 mg/kg/injection, schedule: Q01DX010 (ip), vehicle: carboxymethylcellulose (CMC)) 105 % of control; (dose: 5.0 mg/kg/injection, schedule: Q01DX010 (ip), vehicle: carboxymethylcellulose (CMC)) 105 % of control; (dose: 5.0 mg/kg/injection, schedule: Q01DX010 (ip), vehicle: other) 115 % of control; (dose: 10.0 mg/kg/injection, schedule: Q01DX010 (ip), vehicle: carboxymethylcellulose (CMC)) 100 % of control; (dose: 10.0 mg/kg/injection, schedule: Q01DX010 (ip), vehicle: other) 115 % of control; (dose: 20.0 mg/kg/injection, schedule: Q01DX010 (ip), vehicle: carboxymethylcellulose (CMC)) 120 % of control.

On to `CC(CC(C)(C)C)C(=O)CCC(C)(C)C` (stereo not drawn), for which the T/C is, setting by setting: under setting [1], 104 % of control; (dose: 200.0 mg/kg/injection, schedule: Q01DX001 (ip), vehicle: saline with Tween-80) 100 % of control; (dose: 400.0 mg/kg/injection, schedule: Q01DX001 (ip), vehicle: saline with Tween-80) 109 % of control.

As to `COc1ccccc1CC(C)N` (stereo not drawn), the T/C is 87 % of control (dose: 20.0 mg/kg/injection, schedule: Q01DX009 (ip), vehicle: saline with Tween-80) and 91 % of control (dose: 80.0 mg/kg/injection, schedule: Q01DX009 (ip), vehicle: saline with Tween-80).

In the case of `CC#CCOCC1CO1` (stereo not drawn), the T/C (dose: 66.0 mg/kg/injection, schedule: Q01DX009 (ip), vehicle: saline with Tween-80) is 160 % of control; the T/C under setting [6] is 115 % of control; the T/C under setting [7] is 104 % of control; the T/C (dose: 200.0 mg/kg/injection, schedule: Q04DX003 (ip), vehicle: saline) is 100 % of control.

Take `CN(C)C=C1C(=O)N(C)C(=O)N(C)C1=O`: the T/C was 101 % of control (dose: 100.0 mg/kg/injection, schedule: Q04DX002 (ip), vehicle: saline); 108 % of control (dose: 200.0 mg/kg/injection, schedule: Q04DX002 (ip), vehicle: saline); 112 % of control (dose: 400.0 mg/kg/injection, schedule: Q04DX002 (ip), vehicle: saline).

For the molecule `O=C1CC2c3ccccc3C1C1C(=O)OC(=O)C21` (stereo not drawn), the T/C is 104 % of control (dose: 100.0 mg/kg/injection, schedule: Q04DX003 (ip), vehicle: Klucel (hydroxypropylcellulose) (HPC)) and 90 % of control (dose: 200.0 mg/kg/injection, schedule: Q04DX003 (ip), vehicle: Klucel (hydroxypropylcellulose) (HPC)).

Regarding `CC(C)(C#N)Nc1ccccc1`, the T/C by setting is: (dose: 3.13 mg/kg/injection, schedule: Q01DX009 (ip), vehicle: saline with Tween-80) 90 % of control and 100 % of control; (dose: 6.25 mg/kg/injection, schedule: Q01DX009 (ip), vehicle: saline with Tween-80) 90 % of control and 95 % of control; under setting [5], 95 % of control.

Take `COC(=O)C(C)NC1=C(Cl)C(=O)C(NC(C)C(=O)OC)=C(Cl)C1=O` (stereo not drawn): the T/C (dose: 50.0 mg/kg/injection, schedule: Q01DX009 (ip), vehicle: saline + Tween-80 + alcohol) is 98 % of control; the T/C (dose: 100.0 mg/kg/injection, schedule: Q01DX009 (ip), vehicle: saline + Tween-80 + alcohol) was 97 % of control; the T/C (dose: 200.0 mg/kg/injection, schedule: Q01DX009 (ip), vehicle: saline + Tween-80 + alcohol) is 101 % of control.

In the case of `CN=S(=O)(OCCCCOS(=O)(=NC)c1ccccc1)c1ccccc1` (stereo not drawn), under setting [5], the T/C is 116 % of control.

In the case of `COc1cc2c(cc1OC)C(=O)C(c1ccc3c(c1)OCO3)CC2` (stereo not drawn), the T/C was 98 % of control (dose: 12.5 mg/kg/injection, schedule: Q01DX009 (ip), vehicle: water); 95 % of control (dose: 12.5 mg/kg/injection, schedule: Q04DX003 (ip), vehicle: water); 93 % of control (dose: 25.0 mg/kg/injection, schedule: Q01DX009 (ip), vehicle: water); 101 % of control (dose: 25.0 mg/kg/injection, schedule: Q04DX003 (ip), vehicle: water); 88 % of control and 92 % of control (dose: 50.0 mg/kg/injection, schedule: Q01DX009 (ip), vehicle: water); 100 % of control (dose: 50.0 mg/kg/injection, schedule: Q04DX003 (ip), vehicle: water). Besides, the T/C was 93 % of control (dose: 75.0 mg/kg/injection, schedule: Q01DX009 (ip), vehicle: water); 87 % of control (dose: 100.0 mg/kg/injection, schedule: Q01DX009 (ip), vehicle: water); 88 % of control (dose: 100.0 mg/kg/injection, schedule: Q04DX003 (ip), vehicle: water); 91 % of control (dose: 200.0 mg/kg/injection, schedule: Q01DX009 (ip), vehicle: water).
